Reference: ChEMBL document CHEMBL5131501, “Discovery and evaluation of chalcone derivatives as novel potential anti-Toxoplasma gondii agents” (Eur J Med Chem, 2022)
Active and inactive are the calls of the source. The calls are words filed in the database; no cut-off is given here.

System: Toxoplasma gondii
Experiment: Anti-tachyzoite activity against Toxoplasma gondii RH infected in Kunming mouse model assessed as inhibition of growth rate in peritoneal fluid at 100 mg/kg, ip administered daily for 4 days after 4 hrs post infection
Type: functional
Design: scale not given: the % may be the effect or the level left
Settings: time 4 day

| Compound | Activity [%] |
| --- | --- |
| CO[C@@H]1[C@@H](O[C@@H]2O[C@H](C)[C@@H](O[C@H]3C[C@@](C)(O)[C@@H](O)[C@H](C)O3)[C@H](N(C)C)[C@H]2O)[C@@H](CC=O)C[C@@H](C)[C@@H](O[C@H]2CC[C@H](N(C)C)[C@@H](C)O2)/C=C/C=C/C[C@@H](C)OC(=O)C[C@H]1OC(C)=O | 74.6 |

System: Toxoplasma gondii
Experiment: Anti-tachyzoite activity against Toxoplasma gondii RH infected in human HFF cells assessed as mortality rate at 50 uM incubated for 2 hrs by trypan blue staining based light microscopic analysis
Type: functional, organism-based
Settings: not given

| Compound | Activity |
| --- | --- |
| Nc1ccc(C(=O)CCc2ccc(Cl)c(Cl)c2)cc1 | Active |
| CC(=O)Nc1ccc(C(=O)/C=C/c2ccccc2Br)cc1 | Active |
| CC(C)Nc1ccc(C(=O)/C=C/c2ccccc2Br)cc1 | Active |
| COc1ccc(C(=O)/C=C/c2ccc(O)cc2)cc1OC | Active |
| COc1cccc(/C=C/C(=O)c2cccc(NC(C)=O)c2)c1OC | Active |
| COc1cccc(CCC(=O)c2ccc(N)cc2)c1OC | Active |
| COc1ccc(C(=O)/C=C/c2ccc(O)cc2)cc1 | Active |
| CC(C)Nc1ccc(C(=O)/C=C/c2ccc(Cl)c(Cl)c2)cc1 | Active |
| CCNc1ccc(C(=O)/C=C/c2cccc(OC)c2OC)cc1 | Active |
| COc1cccc(/C=C/C(=O)c2ccc(NC(C)=O)cc2)c1OC | Active |
| COc1ccc(C(=O)/C=C/c2ccccc2OC)cc1O | Active |
| COc1ccc(C(=O)/C=C/c2ccccc2Cl)cc1O | Active |
| COc1ccc(C(=O)/C=C/c2ccccc2Cl)cc1 | Active |
| O=C(/C=C/c1ccccc1Cl)c1cc(F)cc(F)c1 | Active |
| Nc1ccc(C(=O)CCc2ccccc2Br)cc1 | Active |
| COc1cccc(/C=C/C(=O)c2ccc(NC(C)C)cc2)c1OC | Active |
| CCNc1cccc(C(=O)/C=C/c2cccc(OC)c2OC)c1 | Active |
| O=C(/C=C/c1ccccc1Br)c1cc(F)cc(F)c1 | Active |
| COc1cccc(/C=C/C(=O)c2cccc(NC(C)C)c2)c1OC | Active |
| CCNc1ccc(C(=O)/C=C/c2ccccc2Br)cc1 | Active |
| O=C(/C=C/c1ccc(Cl)c(Cl)c1)c1cc(F)cc(F)c1 | Active |
| CCNc1ccc(C(=O)/C=C/c2ccc(Cl)c(Cl)c2)cc1 | Active |
| COc1cccc(CCC(=O)c2cccc(N)c2)c1OC | Active |
| CC(=O)Nc1ccc(C(=O)/C=C/c2ccc(Cl)c(Cl)c2)cc1 | Active |

System: Toxoplasma gondii
Experiment: Anti-tachyzoite activity against Toxoplasma gondii RH infected in kunming mouse model assessed as decrease in serum ALT level at 100 mg/kg, ip administered daily for 4 days after 4 hrs post infection
Type: functional, organism-based
Settings: time 4.0 day

| Compound | Activity |
| --- | --- |
| CO[C@@H]1[C@@H](O[C@@H]2O[C@H](C)[C@@H](O[C@H]3C[C@@](C)(O)[C@@H](O)[C@H](C)O3)[C@H](N(C)C)[C@H]2O)[C@@H](CC=O)C[C@@H](C)[C@@H](O[C@H]2CC[C@H](N(C)C)[C@@H](C)O2)/C=C/C=C/C[C@@H](C)OC(=O)C[C@H]1OC(C)=O | Active |

System: Toxoplasma gondii
Experiment: Anti-tachyzoite activity against Toxoplasma gondii RH infected in kunming mouse model assessed as decrease in serum AST level at 100 mg/kg, ip administered daily for 4 days after 4 hrs post infection
Type: functional, organism-based
Settings: time 4.0 day

| Compound | Activity |
| --- | --- |
| CO[C@@H]1[C@@H](O[C@@H]2O[C@H](C)[C@@H](O[C@H]3C[C@@](C)(O)[C@@H](O)[C@H](C)O3)[C@H](N(C)C)[C@H]2O)[C@@H](CC=O)C[C@@H](C)[C@@H](O[C@H]2CC[C@H](N(C)C)[C@@H](C)O2)/C=C/C=C/C[C@@H](C)OC(=O)C[C@H]1OC(C)=O | Active |

System: Toxoplasma gondii
Experiment: Anti-tachyzoite activity against Toxoplasma gondii RH infected in kunming mouse model assessed as decrease in malondialdehyde lipid peroxidation in liver at 100 mg/kg, ip administered daily for 4 days after 4 hrs post infection
Type: functional, organism-based
Settings: time 4.0 day

| Compound | Activity |
| --- | --- |
| CO[C@@H]1[C@@H](O[C@@H]2O[C@H](C)[C@@H](O[C@H]3C[C@@](C)(O)[C@@H](O)[C@H](C)O3)[C@H](N(C)C)[C@H]2O)[C@@H](CC=O)C[C@@H](C)[C@@H](O[C@H]2CC[C@H](N(C)C)[C@@H](C)O2)/C=C/C=C/C[C@@H](C)OC(=O)C[C@H]1OC(C)=O | Active |
